Reference: patent publication US20240381872A1, “SUBSTITUTED 2,3-DIHYDRO[1,3]THIAZOLO[4,5-B]PYRIDINES, SALTS THEREOF AND THEIR USE AS HERBICIDALLY ACTIVE SUBSTANCES” (BAYER AKTIENGESELLSCHAFT, priority 2021, published 2024)

Assays:
Assay type in all cases: in vivo
Setaria viridis (SETVI) = assay: Herbicidal post-emergence action, section E (Table E8); details: visual assessment ca. 3 weeks after spraying
Description: (§1) Seeds of mono- and dicotyledonous weed plants and crop plants were sown, in plastic or organic planting pots, in sandy loam, covered with soil and grown in a greenhouse under controlled growth conditions. 2 to 3 weeks after sowing, the test plants were sprayed in the single-leaf stage. The compounds according to the invention, formulated in form of wettable powders (WP) or as emulsifiable concentrates (EC), were sprayed onto the green plant parts as aqueous suspension or emulsion, with the addition of 0.5% of an additive, at an application rate of 600 l of water/ha (converted). The test plants were placed in the greenhouse for ca. 3 weeks under optimum growth conditions, and then the effect of the preparations was assessed visually in comparison with untreated controls (herbicidal effect in percent (%): 100% effect=plants have died off, 0% effect=as control plants).

Kochia scoparia (KCHSC) [1] = assay: Herbicidal pre-emergence action, section A (Table A4); details: visual grading after ca. 3 weeks vs untreated controls; for pest or weed control at 1280 g/ha / pest or weed control at 320 g/ha: Bassia scoparia, pre-emergence, 504 h, read-out: pre-emergence activity against KCHSC in %
Summary of the method: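 Pre-emergence soil-surface application: WP or EC formulations in water plus 0.5% additive, sprayed at 600 l/ha onto soil covering seeds sown in sandy loam. Visual percent damage rated at about 3 weeks against untreated pots, 100% meaning plants died off and 0% meaning like controls.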

Oryza sativa (ORYZA) = assay: Post-emergence effects on crop plants, section F (Table F3); details: for post-emergence activity against ORYZA in %: crop plant damage; for post-emergence activity against ORYZA in % / percent crop plant damage at 320 g/ha: application rate 320 g/ha; for percent crop plant damage at 80 g/ha / percent crop plant damage at 320 g/ha: Oryza sativa, 504 h, read-out: post-emergence activity against ORYZA in %; for percent crop plant damage at 80 g/ha: application rate 80 g/ha
Description: as §1, with “plants). Tables F1 to F4 below show the effects of selected compounds of the general formula (I) according to Table 1 on various crop plants and an application rate corresponding to 320 g/ha or below obtained by the experimental procedure mentioned above.” for “plants).”

[2] = system: Alopecurus myosuroides (ALOMY); assay: Herbicidal post-emergence action, section B (Table B2); details: rated visually about 3 weeks after treatment vs untreated controls, 100% = plants have died, 0% = like control plants
Protocol: (§2) Seeds of mono- and dicotyledonous weed plants were placed in plastic pots in sandy loam soil (doubly sown with in each case one species of mono- or dicotyledonous weed plants per pot), covered with soil and cultivated in a greenhouse under controlled growth conditions. 2 to 3 weeks after sowing, the test plants were treated at the one-leaf stage. The compounds of the invention, formulated in the form of wettable powders (WP) or as emulsion concentrates (EC), were applied onto the green parts of the plants as aqueous suspension or emulsion with addition of 0.5% additive at a water application rate of 600 liters per hectare (converted). After the test plants had been kept in the greenhouse under optimum growth conditions for about 3 weeks, the activity of the preparations was rated visually in comparison to untreated controls. For example, 100% activity=the plants have died, 0% activity=like control plants.

Veronica persica (VERPE) = assay: Herbicidal post-emergence action, section E (Table E9); details: visual assessment ca. 3 weeks after spraying; for post-emergence activity against VERPE in % / pest or weed control at 320 g/ha: application rate 320 g/ha
Description: as §1

[3] = system: Matricaria inodora (MATIN); assay: Herbicidal post-emergence action, section B (Table B6); details: application rate 1280 g/ha, visual rating about 3 weeks after treatment vs untreated controls
Protocol: as §2

Brassica napus (BRSNW) = assay: Post-emergence effects on crop plants, section F (Table F5); details: for post-emergence activity against BRSNW in %: crop plant damage
Summary of the method: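 Crops grown in sandy loam in the greenhouse were sprayed post-emergence at the single-leaf stage, 2-3 weeks after sowing. Compounds were formulated as WP or EC with 0.5% additive and applied in 600 l water/ha at 320 g/ha or below. Damage was scored visually about 3 weeks later as % effect versus untreated controls (100% = dead).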

Viola tricolor (VIOTR) = assay: Herbicidal pre-emergence action, section C (Table C9); details: visual grading after ca. 3 weeks
Description: (§3) Seeds of mono- and dicotyledonous weed plants and crop plants were sown, in plastic or organic planting pots, in sandy loam and covered with soil. The compounds according to the invention, formulated in the form of wettable powders (WP) or as emulsifiable concentrates (EC), were applied to the surface of the covering soil as aqueous suspension or emulsion, with the addition of 0.5% of an additive, at an application rate of 600 l of water/ha (converted). Following treatment, the pots were placed in a greenhouse and kept under optimum growth conditions for the test plants. The visual grading of the damage to the test plants was carried out after ca. 3 weeks in comparison to untreated controls (herbicidal effect in percent (%): 100% effect=plants have died off, 0% effect=as control plants).

Kochia scoparia (KCHSC) [4] = assay: Herbicidal post-emergence action, section E (Table E11); details: visual assessment ca. 3 weeks after spraying
Description: as §1

Kochia scoparia (KCHSC) [5] = assay: Herbicidal pre-emergence action, section C (Table C13); details: application rate 320 g/ha, visual grading after ca. 3 weeks
Description: as §3

[6] = Alopecurus myosuroides, post-emergence, 504 h, application rate 1280 g/ha, read-out: post-emergence activity against ALOMY
[7] = Veronica persica, 504 h, read-out: post-emergence activity against VERPE in %
[8] = Setaria viridis, 504 h, application rate 320 g/ha, read-out: post-emergence activity against SETVI in %
[9] = Brassica napus, 504 h, application rate 80 g/ha, read-out: post-emergence activity against BRSNW in %
[10] = Viola tricolor, pre-emergence, 504 h, application rate 320 g/ha, read-out: pre-emergence activity against VIOTR in %

COC(=O)CCC(=O)N1CSc2cc(Cl)c(-c3ccccc3F)nc21 [Example I-003]
post-emergence activity against SETVI in % (Setaria viridis (SETVI); application rate 320 g/ha): 80%
pre-emergence activity against KCHSC in % (Kochia scoparia (KCHSC) [1]; application rate 1280 g/ha): 100%
post-emergence activity against ORYZA in % (Oryza sativa (ORYZA)): 0%
post-emergence activity against ALOMY ([2]; application rate 320 g/ha): 100%

Cc1cc2c(nc1-c1ccccc1F)NCS2 [Example I-007, 5-(2-fluorophenyl)-6-methyl-2,3-dihydro[1,3]thiazolo[4,5-b]pyridine]
pest or weed control at 80 g/ha (Veronica persica (VERPE); Veronica persica, 504 h, application rate 80 g/ha, read-out: post-emergence activity against VERPE in %): 80%
pest or weed control at 80 g/ha (Setaria viridis (SETVI); Setaria viridis, 504 h, application rate 80 g/ha, read-out: post-emergence activity against SETVI in %): 90%
pest or weed control at 1280 g/ha (Kochia scoparia (KCHSC) [1]; application rate 1280 g/ha): 90%
percent crop plant damage at 80 g/ha (Oryza sativa (ORYZA)): 10%
pest or weed control at 1280 g/ha ([3]; Tripleurospermum inodorum, post-emergence, 504 h, read-out: post-emergence activity against MATIN in %): 90%
pest or weed control at 320 g/ha ([2]; Alopecurus myosuroides, post-emergence, 504 h, application rate 320 g/ha, read-out: post-emergence activity against ALOMY): 90%

COC(=O)CCC(=O)N1CSc2cc(C)c(-c3ccccc3F)nc21 [Example I-010]
post-emergence activity against VERPE in % (Veronica persica (VERPE)): 80%
pre-emergence activity against KCHSC in % (Kochia scoparia (KCHSC) [1]; application rate 1280 g/ha): 100%
post-emergence activity against MATIN in % [3]: 90%

BN1CSc2cc(Br)c(-c3ccccc3C)nc21 [Example I-011]
pre-emergence activity against KCHSC in % (Kochia scoparia (KCHSC) [1]; application rate 1280 g/ha): 90%
post-emergence activity against ORYZA in % (Oryza sativa (ORYZA)): 0%

Cc1cc2c(nc1-c1cccc(F)c1F)NCS2 [Example I-029, 5-(2,3-difluorophenyl)-6-methyl-2,3-dihydro[1,3]thiazolo[4,5-b]pyridine]
pest or weed control at 320 g/ha (Kochia scoparia (KCHSC) [1]; application rate 320 g/ha): 100%
percent crop plant damage at 80 g/ha (Oryza sativa (ORYZA)): 0%
pest or weed control at 1280 g/ha [2, 6]: 90%

Clc1ccccc1-c1nc2c(cc1Br)SCN2 [Example I-041, 6-bromo-5-(2-chlorophenyl)-2,3-dihydro[1,3]thiazolo[4,5-b]pyridine]
pest or weed control at 320 g/ha (Kochia scoparia (KCHSC) [1]; application rate 320 g/ha): 90%
percent crop plant damage at 320 g/ha (Oryza sativa (ORYZA)): 0%
pest or weed control at 1280 g/ha [2, 6]: 90%

CCc1ccccc1-c1nc2c(cc1C)[S+]([O-])CN2 (stereo not drawn) [Example I-047]
pest or weed control at 320 g/ha (Veronica persica (VERPE); [7]): 80%
percent crop plant damage at 320 g/ha (Oryza sativa (ORYZA)): 0%
crop plant damage (phytotoxicity) in % at 320 g/ha (Brassica napus (BRSNW); Brassica napus, 504 h, application rate 320 g/ha, read-out: post-emergence activity against BRSNW in %): 20%
pest or weed control at 80 g/ha (Viola tricolor (VIOTR); Viola tricolor, pre-emergence, 504 h, application rate 80 g/ha, read-out: pre-emergence activity against VIOTR in %): 90%

Cc1cc2c(nc1-c1ccccc1Cl)NCS2 [Example I-049, 5-(2-chlorophenyl)-6-methyl-2,3-dihydro[1,3]thiazolo[4,5-b]pyridine]
pest or weed control at 320 g/ha (Veronica persica (VERPE); [7]): 80%
pest or weed control at 320 g/ha (Setaria viridis (SETVI); [8]): 80%
percent crop plant damage at 80 g/ha (Oryza sativa (ORYZA)): 20%

CC(=O)N1CSc2cc(Br)c(-c3ccccc3Cl)nc21 [Example I-055, 1-[6-bromo-5-(2-chlorophenyl)[1,3]thiazolo[4,5-b]pyridin-3(2H)-yl]ethanone]
pest or weed control at 320 g/ha (Kochia scoparia (KCHSC) [1]; application rate 320 g/ha): 90%
percent crop plant damage at 320 g/ha (Oryza sativa (ORYZA)): 0%
crop plant damage (phytotoxicity) in % at 80 g/ha (Brassica napus (BRSNW); [9]): 10%

CC(C)C(=O)N1C[S+]([O-])c2cc(Br)c(-c3ccccc3)nc21 (stereo not drawn) [Example I-067]
pest or weed control at 320 g/ha (Veronica persica (VERPE); [7]): 90%
pest or weed control at 320 g/ha (Setaria viridis (SETVI); [8]): 80%
percent crop plant damage at 320 g/ha (Oryza sativa (ORYZA)): 0%
crop plant damage (phytotoxicity) in % at 80 g/ha (Brassica napus (BRSNW); [9]): 0%
pest or weed control at 320 g/ha (Viola tricolor (VIOTR); [10]): 100%

CCS(=O)(=O)N1C[S+]([O-])c2cc(C)c(-c3ccccc3C)nc21 (stereo not drawn) [Example I-074]
pest or weed control at 320 g/ha (Veronica persica (VERPE); [7]): 90%
pest or weed control at 1280 g/ha (Kochia scoparia (KCHSC) [1]; application rate 1280 g/ha): 100%
percent crop plant damage at 80 g/ha (Oryza sativa (ORYZA)): 0%
pest or weed control at 320 g/ha (Viola tricolor (VIOTR); [10]): 90%

Cc1cc2c(nc1-c1ccccc1)N(C(=O)C1(C)CC(Cl)=NO1)CS2 (stereo not drawn) [Example I-088]
post-emergence activity against VERPE in % (Veronica persica (VERPE)): 80%
post-emergence activity against KCHSC in % (Kochia scoparia (KCHSC) [4]; application rate 320 g/ha): 80%
pre-emergence activity against KCHSC in % (Kochia scoparia (KCHSC) [1]; application rate 1280 g/ha): 90%
post-emergence activity against BRSNW in % (Brassica napus (BRSNW); application rate 80 g/ha): 0%
pre-emergence activity against KCHSC in % (Kochia scoparia (KCHSC) [5]): 90%
post-emergence activity against MATIN in % [3]: 90%
pre-emergence activity against VIOTR in % (Viola tricolor (VIOTR); application rate 320 g/ha): 90%

Cc1cc2c(nc1-c1cccc(C)c1F)NCS2 [Example I-113]
pre-emergence activity against KCHSC in % (Kochia scoparia (KCHSC) [1]; application rate 320 g/ha): 90%
post-emergence activity against BRSNW in % (Brassica napus (BRSNW); application rate 320 g/ha): 20%
pre-emergence activity against KCHSC in % (Kochia scoparia (KCHSC) [5]): 80%
post-emergence activity against MATIN in % [3]: 90%
post-emergence activity against ALOMY ([2]; application rate 1280 g/ha): 90%

Cc1ccccc1-c1nc2c(cc1C)SCN2C(=O)C1(C)CC(Cl)=NO1 (stereo not drawn) [Example I-137]
post-emergence activity against VERPE in % (Veronica persica (VERPE)): 80%
post-emergence activity against KCHSC in % (Kochia scoparia (KCHSC) [4]; application rate 80 g/ha): 90%
pre-emergence activity against KCHSC in % (Kochia scoparia (KCHSC) [1]; application rate 320 g/ha): 90%
pre-emergence activity against KCHSC in % (Kochia scoparia (KCHSC) [5]): 100%
post-emergence activity against MATIN in % [3]: 90%

CC1(C(=O)N2CSc3cc(Br)c(-c4ccccc4)nc32)CC(Cl)=NO1 (stereo not drawn) [Example I-139]
post-emergence activity against VERPE in % (Veronica persica (VERPE)): 80%
post-emergence activity against KCHSC in % (Kochia scoparia (KCHSC) [4]; application rate 320 g/ha): 90%
pre-emergence activity against KCHSC in % (Kochia scoparia (KCHSC) [1]; application rate 1280 g/ha): 90%
pre-emergence activity against KCHSC in % (Kochia scoparia (KCHSC) [5]): 90%

CC1(C(=O)N2CSc3cc(Br)c(-c4ccccc4Cl)nc32)CC(Cl)=NO1 (stereo not drawn) [Example I-141, [6-bromo-5-(2-chlorophenyl)[1,3]thiazolo[4,5-b]pyridin-3(2H)-yl](3-chloro-5-methyl-4,5-dihydro-1,2-oxazol-5-yl)methanone]
pest or weed control at 320 g/ha (Veronica persica (VERPE); [7]): 80%
pest or weed control at 80 g/ha (Kochia scoparia (KCHSC) [4]; Bassia scoparia, 504 h, application rate 80 g/ha, read-out: post-emergence activity against KCHSC in %): 80%
pest or weed control at 1280 g/ha (Kochia scoparia (KCHSC) [1]; application rate 1280 g/ha): 100%
crop plant damage (phytotoxicity) in % at 80 g/ha (Brassica napus (BRSNW); [9]): 20%
pest or weed control at 320 g/ha (Kochia scoparia (KCHSC) [5]; Bassia scoparia, pre-emergence, 504 h, read-out: pre-emergence activity against KCHSC in %): 90%
